Counter-ions that a name gives are not always drawn. Like-named read-outs stand apart in the source and are kept apart here. Each block holds one molecule with its values, some of them ahead of it.
Tests used:
Type in all cases: cell-based
[1] = system: Porphyromonas gingivalis 381-strain (clinical strain); test: Evaluation test for biofilm formation inhibition effect against periodontitis pathogenic bacteria (flow cell system, HA disks, turbidity); settings: for Mean OD Value: turbidity at 550 nm of biofilm peeled off HA disks; for inhibition at 100 µM: Porphyromonas gingivalis, 336 h, read-out: Biofilm Formation Inhibition Rate(%)
Protocol: As with Experiment Example 1, using the flow cell system of FIG. 1, an inhibitory effect against biofilm formation by periodontitis pathogenic bacteria was evaluated for each of the amide compounds produced in Production Examples 1, 3, 5, and 6 (Compounds 1a-1, 1b-1, 1c-1, 1c-2).
Periodontitis pathogenic bacteria Porphyromonas gingivalis 381-strain (clinical strain) was used..
A GAM culture medium containing hemin 5µg/L and menadione 1µg/L was used.
The 381-strain was inoculated in the GAM culture medium, and cultivated until stationary phase (OD550=1.8). Then the culture medium was diluted 20-fold by a fresh GAM culture medium containing the above-mentioned substances.
The test liquid was prepared by dissolving 100µM of each of the Compounds 1a-1, 1b-1, 1c-1, or 1c-2 according to Production Examples 1, 3, 5 and 6 and 100µM of Comparative Compounds 1 and 2 as comparative examples in dimethyl sulfoxide (DMSO), and supplying the resulting DMSO solutions to the above-mentioned bacterial suspensions so that the concentration of each compound becomes 0.1%(v/v).
A DMSO not containing the compound was used as a control test liquid.
The glass cell (4) of the flow cell system (see FIG. 1) was replaced with a stainless cell (3 x 7 x 120mm), and 10 hydroxyapatite (HA) disks (6mm in diameter, 1mm in thickness) were placed in the cell. The HA disks had been subjected to salivary treatment overnight. Each of the test liquids and control test liquids was circulated in the system at a flow rate of 8mL/min for 14 days, Note that the test liquids and the control test liquids were replaced with fresh liquids every two days.
After the cultivation, the HA disks were dipped in 300µL of sterile distilled water, and treated by supersonic wave for 30 minutes at 4°C, The biofilms formed in the HA disks were peeled off and suspended in distilled water. Then, 100µL of the suspension liquid was measured for the turbidity with an absorptiometer (C07500 colorimeter, product of Funakoshi) (measurement wavelength = 550 nm).
A mean OD was found based on the resulting OD values, excluding the minimum and maximum values, Also, a mean value of the turbidities for the Control Test Liquids was found in the same manner as the control mean OD value. A biofilm formation inhibition rate (Inhibition Rate) was found by the following formula. Biofilm Formation Inhibition Rate (%) = […] [formula]

[2] = system: Staphylococcus aureus Methicillin resistant (MRSA) ATCC 43300; test: Evaluation test for disinfecting effect, broth dilution method CLSI(M7-A7)2006; settings: 18 h
Description: (§1) The following test compounds were examined for the disinfecting activities against Pseudomonas aeruginosa, E.. Coli and staphylococcus aureus, according to a broth dilution method of "CLSI(M7-A7)2006" (Clinical and Laboratory Standards Institute, M7-A7, Methods for Dilution Antimicrobial Susceptibility Tests for Bacteria That Grow Aerobically; Approved Standard-Seventh Edition, 2006),
(§2) • Pseudomonas aeruginosa PAO1 • Pseudomonas aeruginosa ATCC 27853 • Escherichia coli ATCC 25922 • Staphylococcus aureus ATCC 29213 • Staphylococcus aureus Methicillin resistant (MRSA) ATCC 43300
(§3) Each of above-mentioned bacteria was inoculated in a TSB culture medium (Bacto TSB Broth, product of BD) for overnight cultivation at 37°C. The culture solution was applied to a TSB agar plate for about a 20-hour cultivation to form colonies. Three to five colonies were taken from the agar plate, and an average colony of them was inoculated in a 4mL TSB culture medium.. The colony was cultivated at 35°C until the number of microorganisms became 1 × 10^8 to 2 x 10^8 CFU/mL. The number of microorganisms with time was found by measuring changes in absorbency at 590nm of culture solution with time. When the turbidity became equivalent to 0.5 McFarland standard, it was determined that the number of microorganisms reached the target level = 1 × 10^8 to 2 × 10^8 CFU/mL.
(§4) The bacillus culture solution thus obtained was diluted 10-fold within 15 minutes, and a 5µL portion was inoculated in each well of an evaluation 96-well microplate. This 96-well microplate was a sterilized 96-well microplate with U-shaped bottoms (Falcon 35-3918: product of BD), and each well was filled with a 100µL portion of MH culture medium (BBL MH Broth: product of BD). Within 15 minutes after inoculation of the bacillus culture solutions, the test compounds were supplied to the well in a manner of 2-fold graded dilution. The cultivation was then carried out at 37°C for 18 hours.
(§5) The MIC was determined as follows. "S (susceptible)" indicates a concentration which caused 80% or more reduction in the diameter of the aggregation deposited in the bottom of the well, compared to when the test liquid is not used. "R (Resistant)" indicates a concentration that caused less than 80% reduction in diameter. The reduction was measured visually.. "I(Intermediate)" indicates a concentration that cannot be measured visually

[3] = system: Staphylococcus aureus ATCC 29213; test: as above; settings: ATCC29213, 18 h
Description: as §1, §2, §3, §4, §5

[4] = system: Pseudomonas aeruginosa ATCC 27853; test: as above; settings: ATCC27853, 18 h
Description: as §1, §2, §3, §4, §5

[5] = system: Pseudomonas aeruginosa PAO1; test: as above; settings: PAO1, 18 h
Description: as §1, §2, §3, §4, §5

[6] = system: Escherichia coli ATCC 25922; test: as above; settings: ATCC25922, 18 h
Description: as §1, §2, §3, §4, §5

[7] = 100µM, 14 days, relative to control test liquid (Mean Comparison OD Value)

Compound: CCCCCCCCCCCC(=O)NC1CCNCC1 [Compound 1b-1, N-(piperidin-4-yl) dodecanoyl amide]
Mean OD Value ([1]; 100µM, 14 days): 0.32 | inhibition at 100 µM [1]: 19.1%

Compound: CCCCCCCCCC(O)CC(=O)NN1CCCC1 (stereo not shown) [Compound 1c-2, N-(pyrrolidin-1-yl)-3-hydroxy dodecanoyl amide]
Mean OD Value ([1]; 100µM, 14 days): 0.041 | inhibition at 100 µM [1, 7]: 87.8%

Compound: CCCCCCCCCCCC(=O)NN1CCCC1 [Compound 1c-1, N-(pyrrolidin-1-yl) dodecanoyl amide]
Mean OD Value ([1]; 100µM, 14 days): 0.522 | inhibition at 100 µM [1, 7]: 11%

Compound: CCCCCCCCCCCC(=O)NC1CCNC1 (stereo not shown) [Compound 1a-1, N-(pyrrolidin-3-yl) dodecanoyl amide]
Mean OD Value ([1]; 100µM, 14 days): 0.49 | inhibition at 100 µM [1]: 37.4%

MIC ([2]; read-out: MIC (µg/mL) I): 8 µg/mL | MIC ([2]; read-out: MIC (µg/mL) R): ≤ 4 µg/mL | MIC ([2]; read-out: MIC (µg/mL) S): ≥ 16 µg/mL | MIC ([3]; read-out: MIC (µg/mL) I): 8 µg/mL | MIC ([3]; read-out: MIC (µg/mL) R): ≤ 4 µg/mL | MIC ([3]; read-out: MIC (µg/mL) S): ≥ 16 µg/mL | MIC ([4]; read-out: MIC (µg/mL) I): 64 µg/mL | MIC ([4]; read-out: MIC (µg/mL) R): ≤ 32 µg/mL | MIC ([4]; read-out: MIC (µg/mL) S): ≥ 128 µg/mL | MIC ([5]; read-out: MIC (µg/mL) I): 64 µg/mL | MIC ([5]; read-out: MIC (µg/mL) R): ≤ 32 µg/mL | MIC ([5]; read-out: MIC (µg/mL) S): ≥ 128 µg/mL | MIC ([6]; read-out: MIC (µg/mL) R): ≤ 8 µg/mL | MIC ([6]; read-out: MIC (µg/mL) S): ≥ 16 µg/mL
Compound: CCCCCCCCCCCC(=O)NC1CCNCC1 [Hydrochloride salt of Compound 1b-1, N-(piperidin-4-yl) dodecanoyl amide]

— EP2077260B1, “AMIDE COMPOUND OR SALT THEREOF, AND BIOFILM FORMATION INHIBITOR, BIOFILM REMOVER AND BACTERICIDE EACH USING THE AMIDE COMPOUND OR SALT THEREOF” (The University of Tokyo, priority 2006, dated 2008)
